Test results: BindingDB's records for patent US10308662 (Signal Rx Pharmaceuticals, 2019)

Molecular target: T1, Bromodomain-containing protein 4 [349-460] (Homo sapiens, UniProt O60885)
T1 construct: 349-460
Experiment: in vitro […] inhibition assay

IC50: 1.87 µM
Structure (SMILES): CCOC(=O)c1ccc(-c2csc3c(=O)cc(N4CCSCC4)oc23)cc1 [US10308662, Compound 125]
